{
  "source": "patent US6503920B1",
  "about": "“Cabergoline and pramipexole: new uses and combinations” (Pharmacia & Upjohn Company, priority 1998, dated 2003)",
  "origin": "cited, not measured here",
  "key": {"PSP patients [1]": {"system": "PSP patients", "details": "120 mg/day, 2-week open label, two patients"}, "PSP patients [2]": {"system": "PSP patients", "details": "10 patients, double blind crossover"}, "PSP patients [3]": {"system": "PSP patients", "details": "controlled trial"}, "PSP patients [4]": {"system": "PSP patients", "details": "750-1500 mg per day"}, "PSP patients [5]": {"system": "PSP patients"}, "PSP patients [6]": {"system": "PSP patients", "details": "controlled trial of 7 subjects"}},
  "data": [
    {"smiles": "c1ccc2c(c1)OCC(C1=NCCN1)O2", "note": "(stereo not drawn) [Idazoxan]", "values": [
      {"measurement": "marginal improvement", "setting": "PSP patients [1]", "result": "12-34%"},
      {"measurement": "side effects", "setting": "PSP patients [1]", "result": "sympathetic side effects were common"}
    ]},
    {"smiles": "CCN1C(=O)CC2(CCN(C)CC2)C1=O", "note": "[RS-86]", "values": [
      {"measurement": "motor or cognitive changes", "setting": "PSP patients [2]", "result": "no consistent motor or cognitive changes"}
    ]},
    {"smiles": "CCCN1C[C@H](CSC)C[C@@H]2c3cccc4[nH]cc(c34)C[C@H]21", "note": "[Pergoline]", "values": [
      {"measurement": "subjects with mild antiparkinsonian effects", "setting": "PSP patients [3]", "result": "2/3"}
    ]},
    {"smiles": "N[C@@H](Cc1ccc(O)c(O)c1)C(=O)O", "note": "[L-dopa]", "values": [
      {"measurement": "patients showing no effect", "setting": "PSP patients [4]", "result": 44, "unit": "%"},
      {"measurement": "response rate showing mild to moderate improvement on the basis of clinical impressions", "setting": "PSP patients [4]", "result": 54, "unit": "%"},
      {"measurement": "most common side effects reported", "setting": "PSP patients [5]", "result": "development of hallucinations"}
    ]},
    {"smiles": "CCN(CC)C(=O)N[C@H]1C=C2c3cccc4[nH]cc(c34)C[C@H]2N(C)C1", "note": "[Lisuride]", "values": [
      {"measurement": "overall result of the trial", "setting": "PSP patients [6]", "result": "not any significant results"},
      {"measurement": "patients with mild improvement", "setting": "PSP patients [6]", "result": "two patients had a mild improvement"}
    ]}
  ]
}
